Results published in PMC4255280 (Cell metabolism, 2014).

Tests used:
MC4R [1] = biological target: MC4R (Mus musculus, UniProt P56450); assay: Short-circuit current; format: cell-based
MC4R [2] = assay: α-MSH ISC response in human colon mucosa after antagonist pretreatment; format: cell-based; conditions: BIBO 300 nM, BIIE 1 μM, HS014 100 nM, each alone, 30 min prior to α-MSH
GPR119 = assay: Short-circuit current; format: cell-based, mouse; conditions: MC4R−/− mice, 10 μM apical

Chain of MC4R (Mus musculus, UniProt P56450) (P56450 whole entry): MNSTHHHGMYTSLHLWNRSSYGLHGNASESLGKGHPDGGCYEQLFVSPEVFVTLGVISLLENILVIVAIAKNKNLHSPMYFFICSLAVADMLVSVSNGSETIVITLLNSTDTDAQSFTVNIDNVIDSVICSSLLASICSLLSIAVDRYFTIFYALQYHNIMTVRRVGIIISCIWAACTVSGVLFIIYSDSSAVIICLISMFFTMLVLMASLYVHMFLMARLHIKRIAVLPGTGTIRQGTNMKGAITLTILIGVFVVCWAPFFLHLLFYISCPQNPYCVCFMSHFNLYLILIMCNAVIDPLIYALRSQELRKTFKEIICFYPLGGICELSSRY

Row | Structure (SMILES) | Effect of pretreatment on α-MSH (1 μM, bl) ISC response in mouse colon (MC4R [1]) | Effect of pretreatment on α-MSH (1 μM, bl) ISC response in human colon mucosa (MC4R [2]) | Response in MC4R−/− mucosae versus MC4R+/+ mucosae (GPR119)
1 | NC(=O)NCc1ccc(CNC(=O)[C@@H](CCCN=C(N)N)NC(=O)C(c2ccccc2)c2ccccc2)cc1 [BIBO3304] | almost completely blocked | blockade | 
2 | N=C(N)NCCC[C@H](NC(=O)CC1(CC(=O)N2CCN(C3c4ccccc4NC(=O)c4ccccc43)CC2)CCCC1)C(=O)NCCn1c(=O)n(-c2ccccc2)n(-c2ccccc2)c1=O (some centres unmarked) [BIIE0246] |  | not by BIIE alone | 
3 | CC(C)(C)OC(=O)N1CCC(OCc2nc(-c3ccncc3)no2)CC1 [PSN632408] |  |  | not significantly different
4 | NC1=N[C@H](O)[C@H]2[C@H]3O[C@]4(O)O[C@@H]([C@@H](O)[C@@]2(N1)[C@@H]4O)[C@]3(O)CO [tetrodotoxin] | not tetrodotoxin (TTX) sensitive |  | 
